Test results from US11230547B2, “Purine inhibitors of human phosphatidylinositol 3-kinase delta” (Merck Sharp & Dohme Corp., priority 2017, dated 2022).
pIC50: −log10 of the molar value.

Key:
[1] = target: PI3Kdelta (Homo sapiens (Human), UniProt O00329); assay: HTRF PI3K biochemical assay, delta isoform; conditions: 0.3 nM enzyme, 100 uM ATP, 5 uM PIP2, form screened per table
Excerpt: (§1) HTRF PI3K Biochemical Assay to Measure Intrinsic Potency of Compound Inhibitors
(§2) The PI3-Kinase biochemical assays were developed to measure the intrinsic potency and compound dependent inhibition of the alpha, beta, delta, and gamma PI3K isoform enzymes. This assay was developed and further optimized from a kit produced by Upstate (Millipore catalog #33-047) (Millipore Sigma, Billerica Mass., USA) and has been configured for high throughput screening (HTS) and structure-activity relationship (SAR) screening. Briefly, this procedure exploits the exquisite specificity and high affinity binding of […] phosphatidyl(3,4,5)triphosphate (PIP3) to the GRP1 pleckstrin homology (PH) domain to generate the signal. In the absence of PIP3, an HTRF (Homogeneous Time-Resolved Fluorescence energy transfer) complex is formed consisting of europium (u)-labeled anti-GST, GST tagged GRP1-PH domain, biotin-PIP3 (biotinylated-PIP3) and streptavidin conjugated APC (Allophycocyanin). The native PIP3 produced by PI3-Kinase activity disrupts in a competitive manner the biotin-PIP3 from the pleckstrin homology (PH) domain, resulting in the loss of energy transfer (HTRF complex) and a decrease in the signal. The format of this assay is the same for all 4 isoforms of PI3K; the differences lie in the concentration of enzyme used to achieve robust assay window. The alpha, beta, and delta assays are run at 0.5, 1, and 0.3 nM enzymes and the gamma assay is run at 5 nM enzyme. The ATP concentration is 100 uM in the alpha, beta, and delta assays and 50 uM adenosine triphosphate (ATP) in the gamma assay. All reactions are run at 5 uM PIP2.
(§3) Compounds are serially diluted (3-fold in 100% DMSO) across a 384-well polypropylene source plated from column 3 to column 12 and column 13 to column 22, to yield 10 concentration dose response for each test compound. Columns 1, 2, 23 and 24 contain either only DMSO or pharmacological known control inhibitor. Once titrations are made, 2.5 nL of the compounds on 384 well plates are reformatted and transferred by acoustic dispense in quadruplicates to a 1536 assay plate (Greiner) to assay across all four PI3K isoform enzymes.
(§4) The PI3-Kinase biochemical assay was optimized using the HTRF kit provided by Upstate (Millipore). The assay kit contains six reagents: 1) 4× Reaction Buffer; 2) native PIP2 (substrate); 3) Stop (EDTA); 4) Detection Mix A (Streptavidin-APC); 5) Detection Mix B (Eu-labeled Anti-GST plus GST-tagged PH-domain); 6) Detection Mix C. In addition, the following items were obtained or purchased; PI3Kinase (catalog #'s alpha 14-602, beta 14-603, gamma 14-558 and delta 14-604 from Upstate Biotechnology now EMD Millipore, Mahopac, N.Y., USA), dithiothreitol (Sigma-Aldrich Corp. (St. Louis, Mo., USA) Catalog #D-5545), Adenosine-5′ triphosphate (InVitrogen (Waltham, Mass., USA), Cat#AS001A), native PIP3 (PI(3,4,5)P3, diC8, H^+, CELLSIGNALS, INC., (Columbus, Ohio, USA) Cat #907) DMSO ((Sigma-Aldrich Corp. (St. Louis, Mo., USA) Catalog #472301).
(§5) PI3Kinase Reaction Buffer is prepared by dilution the stock 1:4 with de-ionized water. DTT (DL-Dithiothreitol), phosphatidylinositol 4,5-bisphosphate (PIP2) and Biotin-PIP3 were added to 1536 assay plate at a final concentration of 5 mM, […] and 25 nM on the day of use. Enzyme addition and compound pre-incubation are initiated by the addition of 1.25 ul of PI3K (at twice its final concentration) in the 1× reaction buffer to all wells using a BioRaptr™ (Beckman Coulter, Waltham, Mass. USA). Plates are incubated at room temperature for 15 minutes. Reactions are initiated by addition of 1.25 ul of 2× substrate solution (PIP2 and ATP in 1× reaction buffer) using BioRaptr™. Plates are incubated in humidified chamber at room temperature for one hour. Reactions are quenched by addition of 0.625 uL of stop solution to all wells using the BioRaptr™. […]

[2] = target: PI3Kalpha (Homo sapiens (Human), UniProt P42336); assay: HTRF PI3K biochemical assay, alpha isoform (selectivity versus delta); conditions: relative ratio PI3K-alpha IC50 value / PI3K-delta IC50 value
Sequence of PI3Kalpha (P42336 whole entry, canonical isoform): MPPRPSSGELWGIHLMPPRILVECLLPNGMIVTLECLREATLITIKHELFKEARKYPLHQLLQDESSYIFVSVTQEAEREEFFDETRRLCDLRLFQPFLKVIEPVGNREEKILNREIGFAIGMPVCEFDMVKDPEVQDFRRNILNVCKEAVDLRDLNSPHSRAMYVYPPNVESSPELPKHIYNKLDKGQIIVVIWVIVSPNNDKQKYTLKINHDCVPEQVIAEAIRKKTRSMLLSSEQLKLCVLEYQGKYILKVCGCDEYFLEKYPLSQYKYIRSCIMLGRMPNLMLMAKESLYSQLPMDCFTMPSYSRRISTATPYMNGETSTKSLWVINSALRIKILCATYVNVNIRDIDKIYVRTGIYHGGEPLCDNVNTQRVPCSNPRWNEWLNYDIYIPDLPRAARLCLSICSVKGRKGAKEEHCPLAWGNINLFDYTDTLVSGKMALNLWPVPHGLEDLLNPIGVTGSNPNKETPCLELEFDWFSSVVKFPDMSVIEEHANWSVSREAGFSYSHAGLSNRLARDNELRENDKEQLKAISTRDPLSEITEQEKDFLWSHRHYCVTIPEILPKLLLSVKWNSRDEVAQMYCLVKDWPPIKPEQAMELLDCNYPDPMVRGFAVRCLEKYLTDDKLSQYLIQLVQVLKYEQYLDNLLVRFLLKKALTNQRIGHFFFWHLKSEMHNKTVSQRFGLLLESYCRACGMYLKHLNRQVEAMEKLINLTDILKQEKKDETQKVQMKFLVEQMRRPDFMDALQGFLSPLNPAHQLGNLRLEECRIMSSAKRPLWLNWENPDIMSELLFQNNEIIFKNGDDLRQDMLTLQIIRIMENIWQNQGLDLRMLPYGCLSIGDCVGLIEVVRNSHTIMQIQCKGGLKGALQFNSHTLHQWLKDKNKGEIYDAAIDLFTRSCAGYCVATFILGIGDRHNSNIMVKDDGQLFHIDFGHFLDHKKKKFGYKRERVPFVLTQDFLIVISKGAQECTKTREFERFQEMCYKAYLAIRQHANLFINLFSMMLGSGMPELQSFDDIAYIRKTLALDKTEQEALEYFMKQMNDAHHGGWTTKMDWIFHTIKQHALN
Sequence of PI3Kalpha (P27986 whole entry partner, canonical isoform): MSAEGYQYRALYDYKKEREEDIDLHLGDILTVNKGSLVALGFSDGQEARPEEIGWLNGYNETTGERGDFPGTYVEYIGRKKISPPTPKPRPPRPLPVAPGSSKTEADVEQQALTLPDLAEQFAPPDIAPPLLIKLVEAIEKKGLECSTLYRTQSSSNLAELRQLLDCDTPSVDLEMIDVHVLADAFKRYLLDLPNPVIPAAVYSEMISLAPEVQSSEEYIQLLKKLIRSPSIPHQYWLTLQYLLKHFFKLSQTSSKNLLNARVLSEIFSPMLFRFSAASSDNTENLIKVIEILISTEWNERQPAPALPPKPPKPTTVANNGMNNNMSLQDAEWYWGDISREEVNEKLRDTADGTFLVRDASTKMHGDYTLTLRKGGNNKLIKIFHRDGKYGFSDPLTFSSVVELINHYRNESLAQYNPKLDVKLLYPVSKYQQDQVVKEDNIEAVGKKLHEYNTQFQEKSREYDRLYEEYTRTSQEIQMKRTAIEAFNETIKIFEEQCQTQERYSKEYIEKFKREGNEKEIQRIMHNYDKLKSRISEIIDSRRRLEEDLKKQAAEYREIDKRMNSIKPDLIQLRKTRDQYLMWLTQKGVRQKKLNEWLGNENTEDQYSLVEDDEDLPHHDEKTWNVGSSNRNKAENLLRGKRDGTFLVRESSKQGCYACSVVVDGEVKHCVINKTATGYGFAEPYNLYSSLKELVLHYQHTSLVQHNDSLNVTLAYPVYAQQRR
Excerpt: as §1, §2, §3, §4, §5

Sequence of PI3Kdelta (O00329 whole entry, canonical isoform): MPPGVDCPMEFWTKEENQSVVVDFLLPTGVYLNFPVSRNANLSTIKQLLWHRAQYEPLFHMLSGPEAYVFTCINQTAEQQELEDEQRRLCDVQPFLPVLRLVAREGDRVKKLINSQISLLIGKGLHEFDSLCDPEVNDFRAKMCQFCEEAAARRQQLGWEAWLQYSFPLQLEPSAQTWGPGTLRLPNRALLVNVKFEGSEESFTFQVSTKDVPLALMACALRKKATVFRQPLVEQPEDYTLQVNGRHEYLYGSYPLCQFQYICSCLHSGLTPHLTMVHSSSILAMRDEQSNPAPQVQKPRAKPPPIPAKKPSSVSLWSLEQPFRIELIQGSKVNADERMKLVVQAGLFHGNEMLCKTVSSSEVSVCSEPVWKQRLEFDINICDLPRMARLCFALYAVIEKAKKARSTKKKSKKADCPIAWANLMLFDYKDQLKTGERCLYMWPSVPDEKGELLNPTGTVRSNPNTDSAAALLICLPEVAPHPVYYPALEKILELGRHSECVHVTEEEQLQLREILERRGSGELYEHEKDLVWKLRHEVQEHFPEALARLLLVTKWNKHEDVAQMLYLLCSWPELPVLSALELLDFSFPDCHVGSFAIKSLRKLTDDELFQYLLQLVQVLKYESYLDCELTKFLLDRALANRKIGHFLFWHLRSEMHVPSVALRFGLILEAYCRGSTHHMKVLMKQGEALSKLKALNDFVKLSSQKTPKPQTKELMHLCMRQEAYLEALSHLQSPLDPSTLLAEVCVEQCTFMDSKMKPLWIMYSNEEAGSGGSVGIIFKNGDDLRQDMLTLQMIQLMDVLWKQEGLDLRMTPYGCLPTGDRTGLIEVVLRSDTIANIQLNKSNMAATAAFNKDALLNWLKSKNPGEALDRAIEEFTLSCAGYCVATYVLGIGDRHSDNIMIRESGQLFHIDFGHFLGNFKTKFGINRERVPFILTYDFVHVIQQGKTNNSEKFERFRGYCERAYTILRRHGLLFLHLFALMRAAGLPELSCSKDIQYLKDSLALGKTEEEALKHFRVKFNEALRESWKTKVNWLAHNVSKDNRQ
Sequence of PI3Kdelta (P27986 whole entry partner, canonical isoform): as the sequence (P27986 whole entry partner, canonical isoform) above

pIC50 [1]	Selectivity versus PI3Kalpha [2]	Compound
6.96	>10	N#Cc1cnc(-c2cccc3cnccc23)nc1N1C[C@@H]2CC1CN2c1cccc(F)c1 (stereo in doubt) [Compound 1-21, 4-[(1R,4S)-5-(3-fluorophenyl)-2,5-diazabicyclo[2.2.1]hept-2-yl]-2-isoquinolin-5-ylpyrimidine-5-carbonitrile]
6.02	10	N#Cc1cnc(N2CCc3[nH]ncc3C2)nc1N1CC2C[C@H]1CN2c1cccc(F)c1 (stereo in doubt) [Compound 1-22, 4-[(1S,4R)-5-(3-fluorophenyl)-2,5-diazabicyclo[2.2.1]hept-2-yl]-2-(1,4,6,7-tetrahydro-5H-pyrazolo[4,3-c]pyridin-5-yl)pyrimidine-5-carbonitrile]
6.40	>10	N#Cc1cnc(N2CCOCC2)nc1N1CC2C[C@H]1CN2c1cccc(F)c1 (stereo in doubt) [Compound 1-23, 4-[(1S,4R)-5-(3-fluorophenyl)-2,5-diazabicyclo[2.2.1]hept-2-yl]-2-morpholin-4-ylpyrimidine-5-carbonitrile]
6.80	>10	Cn1cc(-c2ncc(C#N)c(N3CC4C[C@H]3CN4C(=O)C3CC3)n2)cn1 (stereo in doubt) [Compound 2-1, 4-[(1S,4R)-5-(cyclopropylcarbonyl)-2,5-diazabicyclo[2.2.1]hept-2-yl]-2-(1-methyl-1H-pyrazol-4-yl)pyrimidine-5-carbonitrile]
5.92	>10	Cn1cc(-c2ncc(C#N)c(N3CC4C[C@H]3CN4S(=O)(=O)C3CC3)n2)cn1 (stereo in doubt) [Compound 2-2, 4-[(1S,4R)-5-(cyclopropylsulfonyl)-2,5-diazabicyclo[2.2.1]hept-2-yl]-2-(1-methyl-1H-pyrazol-4-yl)pyrimidine-5-carbonitrile]
5.85	8	Cn1cc(-c2ncc(C#N)c(N3CC4C[C@H]3CN4CC3CC3)n2)cn1 (stereo in doubt) [Compound 2-3, 4-[(1S,4R)-5-(cyclopropylmethyl)-2,5-diazabicyclo[2.2.1]hept-2-yl]-2-(1-methyl-1H-pyrazol-4-yl)pyrimidine-5-carbonitrile]
5.66	5	CCNC(=O)N1C[C@@H]2CC1CN2c1nc(-c2cnn(C)c2)ncc1C#N (stereo in doubt) [Compound 2-4, (1R,4S)-5-[5-cyano-2-(1-methyl-1H-pyrazol-4-yl)pyrimidin-4-yl]-N-ethyl-2,5-diazabicyclo[2.2.1]heptane-2-carboxamide]
6.72	>10	Cn1cc(-c2ncc(C#N)c(N3CC4C[C@H]3CN4C(=O)C(C)(C)C)n2)cn1 (stereo in doubt) [Compound 2-5, 4-[(1S,4R)-5-(2,2-dimethylpropanoyl)-2,5-diazabicyclo[2.2.1]hept-2-yl]-2-(1-methyl-1H-pyrazol-4-yl)pyrimidine-5-carbonitrile]
6.80	>10	Cn1cc(-c2ncc(C#N)c(N3CC4C[C@H]3CN4C(=O)C(C)(C)CF)n2)cn1 (stereo in doubt) [Compound 2-6, 4-[(1S,4R)-5-(3-fluoro-2,2-dimethylpropanoyl)-2,5-diazabicyclo[2.2.1]hept-2-yl]-2-(1-methyl-1H-pyrazol-4-yl)pyrimidine-5-carbonitrile]
6.49	>10	Cn1cc(-c2ncc(C#N)c(N3CC4C[C@H]3CN4C(=O)C3(C)COC3)n2)cn1 (stereo in doubt) [Compound 2-7, 4-{(1S,4R)-5-[(3-methyloxetan-3-yl)carbonyl]-2,5-diazabicyclo[2.2.1]hept-2-yl}-2-(1-methyl-1H-pyrazol-4-yl)pyrimidine-5-carbonitrile]
6.57	>10	COCC1(C(=O)N2C[C@@H]3CC2CN3c2nc(-c3cnn(C)c3)ncc2C#N)CC1 (stereo in doubt) [Compound 2-8, 4-[(1S,4R)-5-{[1-(methoxymethyl)cyclopropyl]carbonyl}-2,5-diazabicyclo[2.2.1]hept-2-yl]-2-(1-methyl-1H-pyrazol-4-yl)pyrimidine-5-carbonitrile]
6.48	>10	Cn1cc(-c2ncc(C#N)c(N3CC4C[C@H]3CN4C(=O)C3CCC3)n2)cn1 (stereo in doubt) [Compound 2-9, 4-[(1S,4R)-5-(cyclobutylcarbonyl)-2,5-diazabicyclo[2.2.1]hept-2-yl]-2-(1-methyl-1H-pyrazol-4-yl)pyrimidine-5-carbonitrile]
6.30	>10	Cn1cc(-c2ncc(C#N)c(N3CC4C[C@H]3CN4C(=O)c3cccs3)n2)cn1 (stereo in doubt) [Compound 2-10, 2-(1-methyl-1H-pyrazol-4-yl)-4-[(1S,4R)-5-(thiophen-2-ylcarbonyl)-2,5-diazabicyclo[2.2.1]hept-2-yl]pyrimidine-5-carbonitrile]
5.96	>10	Cn1cc(-c2ncc(C#N)c(N3CC4C[C@H]3CN4C(=O)c3cocn3)n2)cn1 (stereo in doubt) [Compound 2-11, 2-(1-methyl-1H-pyrazol-4-yl)-4-[(1S,4R)-5-(1,3-oxazol-4-ylcarbonyl)-2,5-diazabicyclo[2.2.1]hept-2-yl]pyrimidine-5-carbonitrile]
6.32	10	Cn1cc(-c2ncc(C#N)c(N3CC4C[C@H]3CN4C(=O)CC3COC3)n2)cn1 (stereo in doubt) [Compound 2-12, 2-(1-methyl-1H-pyrazol-4-yl)-4-[(1S,4R)-5-(oxetan-3-ylacetyl)-2,5-diazabicyclo[2.2.1]hept-2-yl]pyrimidine-5-carbonitrile]
6.33	>10	CC(C)S(=O)(=O)N1C[C@@H]2CC1CN2c1nc(-c2cnn(C)c2)ncc1C#N (stereo in doubt) [Compound 2-13, 4-{(1S,4R)-5-[(1-methylethyl)sulfonyl]-2,5-diazabicyclo[2.2.1]hept-2-yl}-2-(1-methyl-1H-pyrazol-4-yl)pyrimidine-5-carbonitrile]
6.21	>10	CCCS(=O)(=O)N1C[C@@H]2CC1CN2c1nc(-c2cnn(C)c2)ncc1C#N (stereo in doubt) [Compound 2-14, 2-(1-methyl-1H-pyrazol-4-yl)-4-[(1S,4R)-5-(propylsulfonyl)-2,5-diazabicyclo[2.2.1]hept-2-yl]pyrimidine-5-carbonitrile]
6.19	>10	Cn1cc(-c2ncc(C#N)c(N3CC4C[C@H]3CN4S(=O)(=O)C3CCCC3)n2)cn1 (stereo in doubt) [Compound 2-15, 4-[(1S,4R)-5-(cyclopentylsulfonyl)-2,5-diazabicyclo[2.2.1]hept-2-yl]-2-(1-methyl-1H-pyrazol-4-yl)pyrimidine-5-carbonitrile]
6.01	>10	Cn1cc(-c2ncc(C#N)c(N3CC4C[C@H]3CN4CCCF)n2)cn1 (stereo in doubt) [Compound 2-16, 4-[(1S,4R)-5-(3-fluoropropyl)-2,5-diazabicyclo[2.2.1]hept-2-yl]-2-(1-methyl-1H-pyrazol-4-yl)pyrimidine-5-carbonitrile]
